{
  "source": "patent US7323485B2",
  "about": "“4-(substituted cycloalkylmethyl) imidazole-2-thiones, 4-(substituted cycloalkenylmethyl) imidazole-2-thiones, 4-(substituted cycloalkylmethyl) imidazol-2-ones and 4-(substituted cycloalkenylmethyl) imidazol-2-ones and related compounds” (Allergan, Inc., priority 2002, dated 2008)",
  "key": {"[1]": {"system": "male Sprague-Dawley rats", "test": "Sedative activity (exploratory behavior)", "assay_type": "in vivo, rat", "conditions": "intraperitoneally, up to a dose of 1 mg/kg", "experimental": "To test sedation, six male Sprague-Dawley rats are given up to 3 mg/kg of the test compound in a saline or DMSO vehicle by intraperitoneal injection (i.p.). Sedation is graded 30 minutes following administration of the drug by monitoring locomotor skills as follows.\nThe Sprague-Dawley rats are weighed and 1 ml/kg body weight of an appropriate concentration (ie. 3 mg/ml for a final dose of 3 mg/kg) drug solution is injected intraperitoneally. Typically the test compound is formulated in approximately 10 to 50% DMSO. The results are compared to controls that are injected with 1 ml/kg saline or 10 to 50% DMSO. Rat activity is then determined 30 minutes after injection of the drug solution. Rats are placed in a dark covered chamber and a digicom analyzer (Omnitech Electronic) quantitates their exploratory behavior for a five-minute period. The machine records each time the rat interrupts an array of 32 photoelectric beams in the X and Y orientation."}, "[2]": {"system": "rats with ligated L5 and L6 spinal nerves", "test": "Chung model of neuropathic pain (tactile allodynia, von Frey hairs)", "assay_type": "in vivo", "conditions": "Rattus norvegicus, 0.5 h, 30 min following drug administration, read-out: % Pain Reversal ± SEM; for inhibition in vivo at 0.001 mg/kg: 1 μg/kg i.p.; for inhibition in vivo at 0.003 mg/kg: 3 μg/kg i.p.", "excerpt": "A model in accordance with Kim and Chung 1992, Pain […], pp 355-363 (Chung model), for chronic pain (in particular peripheral neuropathy) involves the surgical ligation of the L5 (and optionally the L6) spinal nerves on one side in experimental animals. Rats recovering from the surgery gain weight and display a level of general activity similar to that of normal rats. However, these rats develop abnormalities of the foot, wherein the hindpaw is moderately everted and the toes are held together. More importantly, the hindpaw on the side affected by the surgery appears to become sensitive to pain from low-threshold mechanical stimuli, such as that producing a faint sensation of touch in a human, within about 1 week following surgery. This sensitivity to normally non-painful touch is called “tactile allodynia” and lasts for at least two months. The response includes lifting the affected hindpaw to escape from the stimulus, licking the paw and holding it in the air for many seconds. None of these responses is normally seen in the control group.\nRats are anesthetized before surgery. The surgical site is shaved and prepared either with betadine or Novacaine. Incision is made from the thoracic vertebra Xlll down toward the sacrum. Muscle tissue is separated from the spinal vertebra (left side) at the L4-S2 levels. The L6 vertebra is located and the transverse process is carefully removed with a small rongeur to expose the L4-L6 spinal nerves. The L5 and L6 spinal nerves are isolated and tightly ligated with 6-0 silk thread. The same procedure is done on the right side as a control, except no ligation of the spinal nerves is performed.\nA complete hemostasis is confirmed, then the wounds are sutured. A small amount of antibiotic ointment is applied to the incised area, and the rat is transferred to the recovery plastic cage under a regulated heat-temperature lamp. On the day of the experiment, at least seven days after the surgery, typically six rats per test group are administered the test drugs by intraperitoneal (i.p.) injection or oral gavage. For i.p. injection, the compounds are formulated in approximately 10 to 50% DMSO and given in a volume of 1 ml/kg body weight.\nTactile allodynia is measured prior to and 30 minutes after drug administration using von Frey hairs that are a series of fine hairs with incremental differences in stiffness. Rats are placed in a plastic cage with a wire mesh bottom and allowed to acclimate for approximately 30 minutes. The von Frey hairs are applied perpendicularly through the mesh to the mid-plantar region of the rats' hindpaw with sufficient force to cause slight buckling and held for 6-8 seconds. The applied force has been calculated to range from 0.41 to 15.1 grams. If the paw is sharply withdrawn, it is considered a positive response. A normal animal will not respond to stimuli in this range, but a surgically ligated paw will be withdrawn in response to a 1-2 gram hair. The 50% paw withdrawal threshold is determined using the method of Dixon, W. J., Ann. Rev. Pharmacol. Toxicol. 20:441-462 (1980). The post-drug threshold is compared to the pre-drug threshold and the percent reversal of tactile sensitivity is calculated based on a normal threshold of 15.1 grams. The results are expressed in percent (%) MPE, where the MPE value reflects the percentage reversal of pain threshold to that of a normal animal (100%). Table 3 below indicates results of this test with Compounds 1, 7 and 29 of the invention, administered i.p. and in oral doses."}},
  "note": "Like-named read-outs stand apart in the source and are kept apart here.",
  "data": [
    {"smiles": "S=c1[nH]cc(CC2CC=CC2)[nH]1", "note": "[Compound 18, 4-cyclopent-3-enylmethyl-1,3-dihydro-imidazole-2-thione]", "values": [
      {"measurement": "sedative effect", "setting": "[1]", "value": "no sedative effect"},
      {"measurement": "inhibition in vivo at 0.01 mg/kg", "setting": "[2]; ip, 10 μg/kg i.p.", "value": "5 ± 2.5", "unit": "%"},
      {"measurement": "inhibition in vivo at 0.03 mg/kg", "setting": "[2]; ip, 30 μg/kg i.p.", "value": "35 ± 5.2", "unit": "%"},
      {"measurement": "inhibition in vivo at 0.1 mg/kg", "setting": "[2]; ip, 100 μg/kg i.p.", "value": "72 ± 6.6", "unit": "%"},
      {"measurement": "inhibition in vivo at 0.3 mg/kg", "setting": "[2]; ip, 300 μg/kg i.p.", "value": "71 ± 6.4", "unit": "%"},
      {"measurement": "inhibition in vivo at 0.03 mg/kg", "setting": "[2]; po, 30 μg/kg p.o.", "value": "1 ± 2", "unit": "%"},
      {"measurement": "inhibition in vivo at 0.1 mg/kg", "setting": "[2]; po, 100 μg/kg p.o.", "value": "68 ± 4.4", "unit": "%"},
      {"measurement": "inhibition in vivo at 0.3 mg/kg", "setting": "[2]; po, 300 μg/kg p.o.", "value": "82 ± 5.9", "unit": "%"},
      {"measurement": "inhibition in vivo at 1 mg/kg", "setting": "[2]; po, 1000 μg/kg p.o.", "value": "82 ± 8.1", "unit": "%"}
    ]},
    {"smiles": "O=c1[nH]cc(CC2CCC3=C2CCC3)[nH]1", "note": "(stereo not shown) [Compound 41, 4-(1,2,3,4,5,6-Hexahydro-pentalen-1-ylmethyl)-1,3-dihydro-imidazol-2-one]", "values": [
      {"measurement": "inhibition in vivo at 0.01 mg/kg", "setting": "[2]; ip, 10 μg/kg i.p.", "value": "3 ± 1.6", "unit": "%"},
      {"measurement": "inhibition in vivo at 0.03 mg/kg", "setting": "[2]; ip, 30 μg/kg i.p.", "value": "71 ± 2.8", "unit": "%"},
      {"measurement": "inhibition in vivo at 0.1 mg/kg", "setting": "[2]; ip, 100 μg/kg i.p.", "value": "13 ± 1", "unit": "%"}
    ]},
    {"smiles": "S=c1[nH]cc(CC2CCc3ccccc32)[nH]1", "note": "(stereo not shown) [Compound 7, 4-indan-1-ylmethyl-1,3-dihydro-imidazole-2-thione]", "values": [
      {"measurement": "inhibition in vivo at 0.001 mg/kg", "setting": "[2]; ip", "value": "1 ± 1", "unit": "%"},
      {"measurement": "inhibition in vivo at 0.003 mg/kg", "setting": "[2]; ip", "value": "23 ± 4", "unit": "%"},
      {"measurement": "inhibition in vivo at 0.01 mg/kg", "setting": "[2]; ip, 10 μg/kg i.p.", "value": "58 ± 8", "unit": "%"},
      {"measurement": "inhibition in vivo at 0.03 mg/kg", "setting": "[2]; ip, 30 μg/kg i.p.", "value": "85 ± 6", "unit": "%"},
      {"measurement": "inhibition in vivo at 0.1 mg/kg", "setting": "[2]; ip, 100 μg/kg i.p.", "value": "89 ± 7", "unit": "%"},
      {"measurement": "inhibition in vivo at 0.01 mg/kg", "setting": "[2]; po, 10 μg/kg p.o.", "value": "1 ± 1", "unit": "%"},
      {"measurement": "inhibition in vivo at 0.03 mg/kg", "setting": "[2]; po, 30 μg/kg p.o.", "value": "56 ± 10", "unit": "%"},
      {"measurement": "inhibition in vivo at 0.1 mg/kg", "setting": "[2]; po, 100 μg/kg p.o.", "value": "58 ± 8", "unit": "%"},
      {"measurement": "inhibition in vivo at 0.3 mg/kg", "setting": "[2]; po, 300 μg/kg p.o.", "value": "61 ± 6", "unit": "%"}
    ]},
    {"smiles": "S=c1[nH]cc(CC2CCC3=C2CCC3)[nH]1", "note": "(stereo not shown) [Compound 1, 4-(1,2,3,4,5,6-hexahydro-pentalen-1-ylmethyl)-1,3-dihydro-imidazole-2-thione]", "values": [
      {"measurement": "inhibition in vivo at 0.03 mg/kg", "setting": "[2]; ip, 30 μg/kg i.p.", "value": "9 ± 2", "unit": "%"},
      {"measurement": "inhibition in vivo at 0.1 mg/kg", "setting": "[2]; ip, 100 μg/kg i.p.", "value": "13 ± 2", "unit": "%"},
      {"measurement": "inhibition in vivo at 1 mg/kg", "setting": "[2]; ip, 1000 μg/kg i.p.", "value": "44 ± 7", "unit": "%"},
      {"measurement": "inhibition in vivo at 0.1 mg/kg", "setting": "[2]; po, 100 μg/kg p.o.", "value": "29 ± 5", "unit": "%"}
    ]},
    {"smiles": "S=c1[nH]cc(CC2CCc3sccc3C2)[nH]1", "note": "(stereo not shown) [Compound 29, 4-(4,5,6,7-tetrahydro-benzo[b]thiophen-5-ylmethyl)-1,3-dihydro-imidazole-2-thione]", "values": [
      {"measurement": "inhibition in vivo at 0.01 mg/kg", "setting": "[2]; ip, 10 μg/kg i.p.", "value": "17 ± 3", "unit": "%"},
      {"measurement": "inhibition in vivo at 0.03 mg/kg", "setting": "[2]; ip, 30 μg/kg i.p.", "value": "61 ± 11", "unit": "%"},
      {"measurement": "inhibition in vivo at 0.1 mg/kg", "setting": "[2]; ip, 100 μg/kg i.p.", "value": "14 ± 2", "unit": "%"}
    ]},
    {"smiles": "O=c1[nH]cc(C[C@H]2CCc3cc(F)ccc32)[nH]1", "note": "[Compound 61, R-(+)-4-(5-fluoro-indan-1-ylmethyl)-1,3-dihydro-imidazol-2-one]", "values": [
      {"measurement": "sedative effect", "setting": "[1]", "value": "no sedative effect"}
    ]},
    {"smiles": "O=C1c2ccccc2CCC1Cc1c[nH]c(=S)[nH]1", "note": "(single isomer, unassigned) [Compound 23, 2-(2-thioxo-2,3-dihydro-1H-imidazol-4-ylmethyl)-3,4-dihydro-2H-naphthalen-1-one]", "values": [
      {"measurement": "sedative effect", "setting": "[1]", "value": "no sedative effect"},
      {"measurement": "inhibition in vivo at 0.001 mg/kg", "setting": "[2]; ip", "value": "0.7 ± 0.8", "unit": "%"},
      {"measurement": "inhibition in vivo at 0.003 mg/kg", "setting": "[2]; ip", "value": "59 ± 5.8", "unit": "%"},
      {"measurement": "inhibition in vivo at 0.01 mg/kg", "setting": "[2]; ip, 10 μg/kg i.p.", "value": "74 ± 6.1", "unit": "%"},
      {"measurement": "inhibition in vivo at 0.03 mg/kg", "setting": "[2]; ip, 30 μg/kg i.p.", "value": "69 ± 10", "unit": "%"}
    ]},
    {"smiles": "O=c1[nH]cc(CC2CCc3cc(F)ccc32)[nH]1", "note": "(stereo not shown) [Compound 49, 4-(5-fluoro-indan-1-ylmethyl)-1,3-dihydro-imidazol-2-one]", "values": [
      {"measurement": "sedative effect", "setting": "[1]", "value": "no sedative effect"},
      {"measurement": "inhibition in vivo at 0.001 mg/kg", "setting": "[2]; ip", "value": "2.3 ± 1.3", "unit": "%"},
      {"measurement": "inhibition in vivo at 0.003 mg/kg", "setting": "[2]; ip", "value": "23 ± 3.8", "unit": "%"},
      {"measurement": "inhibition in vivo at 0.01 mg/kg", "setting": "[2]; ip, 10 μg/kg i.p.", "value": "39 ± 7.7", "unit": "%"},
      {"measurement": "inhibition in vivo at 0.03 mg/kg", "setting": "[2]; ip, 30 μg/kg i.p.", "value": "72 ± 8.2", "unit": "%"},
      {"measurement": "inhibition in vivo at 0.1 mg/kg", "setting": "[2]; ip, 100 μg/kg i.p.", "value": "80 ± 6.5", "unit": "%"},
      {"measurement": "inhibition in vivo at 0.03 mg/kg", "setting": "[2]; po, 30 μg/kg p.o.", "value": "43 ± 7.1", "unit": "%"},
      {"measurement": "inhibition in vivo at 0.1 mg/kg", "setting": "[2]; po, 100 μg/kg p.o.", "value": "68 ± 4.8", "unit": "%"},
      {"measurement": "inhibition in vivo at 0.3 mg/kg", "setting": "[2]; po, 300 μg/kg p.o.", "value": "74 ± 6.8", "unit": "%"}
    ]}
  ]
}
